Test system: KRAS PDC tumor spheroids (HUVEC+MSC), viability
Experiment: Anticancer human tumor 254851-301-R-J1-PDC patient-derived colon carcinoma cell line growth inhibition [KRAS2]
Settings: for IC50: curve of first compound; for viability, T/C: stronger effect = lower value
Outline: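 KRAS-mutant tumor cells were grown as spheroids with HUVEC endothelial cells and human MSCs as stroma. Targeted agents were tested alone and with KRAS pathway inhibitors. Doses started at or near clinical Cmax, or 10 microM, descending half-log.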

[1] = second compound 0.1 µM, first compound 0.01 µM
[2] = second compound 0.1 µM, first compound 0.0316 µM
[3] = second compound 0.1 µM, first compound 0.1 µM
[4] = second compound 0.316 µM, first compound 0.01 µM
[5] = second compound 0.316 µM, first compound 0.0316 µM
[6] = second compound 0.316 µM, first compound 0.1 µM
[7] = second compound 1 µM, first compound 0.01 µM
[8] = second compound 1 µM, first compound 0.0316 µM
[9] = second compound 1 µM, first compound 0.1 µM
[10] = second compound 3.16 µM, first compound 0.01 µM
[11] = second compound 3.16 µM, first compound 0.0316 µM
[12] = second compound 3.16 µM, first compound 0.1 µM
[13] = second compound 10 µM, first compound 0.01 µM
[14] = second compound 10 µM, first compound 0.0316 µM
[15] = second compound 10 µM, first compound 0.1 µM
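Also: spheroids exposed to compounds for seven days before readout.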
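For viability, T/C in this document: 100% = DMSO vehicle control luminescence of the spheroids.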

CC(=O)OC12COC1CC(O)C1(C)C(=O)C(O)C3=C(C)C(OC(=O)C(O)C(NC(=O)OC(C)(C)C)c4ccccc4)CC(O)(C(OC(=O)c4ccccc4)C21)C3(C)C (stereo not given) + CC1OCC2(CCN(c3cnc(Sc4ccnc(N)c4Cl)c(N)n3)CC2)C1N
IC50 (second compound 0.1 µM): 154 nM
IC50 (second compound 0.316 µM): 175 nM
IC50 (second compound 1 µM): 168 nM
IC50 (second compound 3.16 µM): 80.1 nM
IC50 (second compound 10 µM): 58.4 nM
viability, T/C [1]: 99.2%
viability, T/C [2]: 89.1%
viability, T/C [3]: 59.8%
viability, T/C (second compound 0.1 µM, first compound 0.316 µM): 33.6%
viability, T/C (second compound 0.1 µM, first compound 1 µM): 24.1%
viability, T/C (second compound 0.1 µM, first compound 3.16 µM): 24%
viability, T/C [4]: 93.3%
viability, T/C [5]: 85.8%
viability, T/C [6]: 61.6%
viability, T/C (second compound 0.316 µM, first compound 0.316 µM): 38.1%
viability, T/C (second compound 0.316 µM, first compound 1 µM): 23.2%
viability, T/C (second compound 0.316 µM, first compound 3.16 µM): 22.6%
viability, T/C [7]: 80.7%
viability, T/C [8]: 89.6%
viability, T/C [9]: 60.5%
viability, T/C (second compound 1 µM, first compound 0.316 µM): 36.1%
viability, T/C (second compound 1 µM, first compound 1 µM): 26.6%
viability, T/C (second compound 1 µM, first compound 3.16 µM): 22.9%
viability, T/C [10]: 73.3%
viability, T/C [11]: 72.3%
viability, T/C [12]: 44.5%
viability, T/C (second compound 3.16 µM, first compound 0.316 µM): 22.3%
viability, T/C (second compound 3.16 µM, first compound 1 µM): 17.1%
viability, T/C (second compound 3.16 µM, first compound 3.16 µM): 18.6%
viability, T/C [13]: 64.2%
viability, T/C [14]: 66.4%
viability, T/C [15]: 36.7%
viability, T/C (second compound 10 µM, first compound 0.316 µM): 21.2%
viability, T/C (second compound 10 µM, first compound 1 µM): 16.1%
viability, T/C (second compound 10 µM, first compound 3.16 µM): 16.1%

CN(C)C/C=C/C(=O)Nc1cc2c(Nc3ccc(F)c(Cl)c3)ncnc2cc1O[C@H]1CCOC1 + CC1OCC2(CCN(c3cnc(Sc4ccnc(N)c4Cl)c(N)n3)CC2)C1N
IC50 (second compound 0.1 µM): > 100 nM
IC50 (second compound 0.316 µM): > 100 nM
IC50 (second compound 1 µM): > 100 nM
IC50 (second compound 3.16 µM): > 100 nM
IC50 (second compound 10 µM): 63.1 nM
viability, T/C (second compound 0.1 µM, first compound 0.000316 µM): 105%
viability, T/C (second compound 0.1 µM, first compound 0.001 µM): 106%
viability, T/C (second compound 0.1 µM, first compound 0.00316 µM): 92.8%
viability, T/C [1]: 90.2%
viability, T/C [2]: 84.5%
viability, T/C [3]: 65.2%
viability, T/C (second compound 0.316 µM, first compound 0.000316 µM): 94.5%
viability, T/C (second compound 0.316 µM, first compound 0.001 µM): 84.3%
viability, T/C (second compound 0.316 µM, first compound 0.00316 µM): 82.8%
viability, T/C [4]: 80.2%
viability, T/C [5]: 83.4%
viability, T/C [6]: 68%
viability, T/C (second compound 1 µM, first compound 0.000316 µM): 95.9%
viability, T/C (second compound 1 µM, first compound 0.001 µM): 84.2%
viability, T/C (second compound 1 µM, first compound 0.00316 µM): 88.1%
viability, T/C [7]: 91.8%
viability, T/C [8]: 79.8%
viability, T/C [9]: 75.8%
viability, T/C (second compound 3.16 µM, first compound 0.000316 µM): 67.6%
viability, T/C (second compound 3.16 µM, first compound 0.001 µM): 64.1%
viability, T/C (second compound 3.16 µM, first compound 0.00316 µM): 62.8%
viability, T/C [10]: 60.4%
viability, T/C [11]: 59%
viability, T/C [12]: 51.6%
viability, T/C (second compound 10 µM, first compound 0.000316 µM): 85.5%
viability, T/C (second compound 10 µM, first compound 0.001 µM): 97.7%
viability, T/C (second compound 10 µM, first compound 0.00316 µM): 66.9%
viability, T/C [13]: 81.5%
viability, T/C [14]: 51.6%
viability, T/C [15]: 46.8%
